Assays:
[1] = target: serotoninergic 5-HT6 receptor (Homo sapiens, UniProt P50406); assay: Binding assay 5-HT6 (h), [3H]LSD, CHO cells; design: expressed in transfected cells; host or cells: CHO cells; settings: read-out: 5-HT6
Summary of the method: (§1)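 Single-concentration test (1×10^−6 M). Total and non-specific binding were counted by scintillation, and their difference defines specific binding.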

adrenergic α1 receptor = assay: Binding assay α1 (non-selective), [3H]prazosin, rat cerebral cortex; settings: percent inhibition of control specific binding; compounds tested at 1×10^−6 M
Summary of the method: as §1

dopaminergic D3 receptor = dopaminergic D3 receptor (Homo sapiens, UniProt P35462); assay: Binding assay D3 (h), [3H]methyl-spiperone, CHO cells; design: expressed in transfected cells; host or cells: CHO cells; settings: read-out: D3 [%]
Chain of dopaminergic D3 receptor (P35462 whole entry): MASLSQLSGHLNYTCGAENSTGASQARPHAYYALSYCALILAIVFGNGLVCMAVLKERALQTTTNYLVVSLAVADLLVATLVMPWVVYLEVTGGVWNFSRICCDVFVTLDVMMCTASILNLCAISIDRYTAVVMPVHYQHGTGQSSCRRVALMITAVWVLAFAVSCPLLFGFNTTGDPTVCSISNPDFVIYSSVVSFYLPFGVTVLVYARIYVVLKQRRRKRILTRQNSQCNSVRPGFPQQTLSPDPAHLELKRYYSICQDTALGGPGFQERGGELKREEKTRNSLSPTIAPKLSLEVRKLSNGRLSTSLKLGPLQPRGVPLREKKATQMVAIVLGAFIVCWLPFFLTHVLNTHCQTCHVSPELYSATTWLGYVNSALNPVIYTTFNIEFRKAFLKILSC
Summary of the method: as §1

[2] = target: T1, serotonine transporter (SERT) receptor (Homo sapiens, UniProt P31645); assay: Binding assay SERT (h), [3H]imipramine, CHO cells; settings: read-out: SERT [%]
T1 construct: expressed in transfected cells; host or cells: CHO cells
T1 sequence (P31645 whole entry): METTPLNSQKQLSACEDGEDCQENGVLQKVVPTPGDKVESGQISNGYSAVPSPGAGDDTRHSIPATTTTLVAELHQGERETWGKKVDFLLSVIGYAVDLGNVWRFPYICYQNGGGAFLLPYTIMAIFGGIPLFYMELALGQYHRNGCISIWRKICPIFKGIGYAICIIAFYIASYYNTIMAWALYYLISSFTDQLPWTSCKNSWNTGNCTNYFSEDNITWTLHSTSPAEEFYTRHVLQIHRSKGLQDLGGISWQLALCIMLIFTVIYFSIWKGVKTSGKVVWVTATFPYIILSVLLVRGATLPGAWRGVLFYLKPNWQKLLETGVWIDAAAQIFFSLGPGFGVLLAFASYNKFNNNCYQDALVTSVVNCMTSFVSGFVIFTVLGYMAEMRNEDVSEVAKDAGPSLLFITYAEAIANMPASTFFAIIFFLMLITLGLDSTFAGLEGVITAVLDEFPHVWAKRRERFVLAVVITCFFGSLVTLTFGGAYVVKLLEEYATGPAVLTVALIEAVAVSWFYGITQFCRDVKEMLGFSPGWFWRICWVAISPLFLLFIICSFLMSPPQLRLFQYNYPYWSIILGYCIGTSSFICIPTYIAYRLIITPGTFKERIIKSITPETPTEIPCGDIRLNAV
Summary of the method: as §1

dopaminergic D2 receptor = dopaminergic D2 receptor (Homo sapiens, UniProt P14416); assay: Binding assay D2S (h), [3H]methyl-spiperone, HEK-293 cells; design: expressed in transfected cells; host or cells: HEK-293 cells; settings: read-out: D2 [%]
Chain of dopaminergic D2 receptor (P14416 1-414 isoform P14416-2): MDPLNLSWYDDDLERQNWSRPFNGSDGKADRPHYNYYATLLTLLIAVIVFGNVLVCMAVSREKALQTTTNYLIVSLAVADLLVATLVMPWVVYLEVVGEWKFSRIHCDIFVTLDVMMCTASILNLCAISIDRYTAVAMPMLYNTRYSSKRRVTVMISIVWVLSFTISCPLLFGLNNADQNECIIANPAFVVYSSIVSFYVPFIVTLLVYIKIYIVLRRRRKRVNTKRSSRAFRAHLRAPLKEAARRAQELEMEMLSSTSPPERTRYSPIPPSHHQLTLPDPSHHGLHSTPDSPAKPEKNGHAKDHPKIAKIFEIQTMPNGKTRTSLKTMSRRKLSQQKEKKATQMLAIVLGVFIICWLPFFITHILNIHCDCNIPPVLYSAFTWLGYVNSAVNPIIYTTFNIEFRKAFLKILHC
Summary of the method: as §1

[3] = target: serotoninergic 5-HT7 receptor (Homo sapiens, UniProt P34969); assay: Binding assay 5-HT7 (h), [3H]LSD, CHO cells; design: expressed in transfected cells; host or cells: CHO cells; settings: read-out: 5-HT7
Chain of serotoninergic 5-HT7 receptor (P34969 whole entry): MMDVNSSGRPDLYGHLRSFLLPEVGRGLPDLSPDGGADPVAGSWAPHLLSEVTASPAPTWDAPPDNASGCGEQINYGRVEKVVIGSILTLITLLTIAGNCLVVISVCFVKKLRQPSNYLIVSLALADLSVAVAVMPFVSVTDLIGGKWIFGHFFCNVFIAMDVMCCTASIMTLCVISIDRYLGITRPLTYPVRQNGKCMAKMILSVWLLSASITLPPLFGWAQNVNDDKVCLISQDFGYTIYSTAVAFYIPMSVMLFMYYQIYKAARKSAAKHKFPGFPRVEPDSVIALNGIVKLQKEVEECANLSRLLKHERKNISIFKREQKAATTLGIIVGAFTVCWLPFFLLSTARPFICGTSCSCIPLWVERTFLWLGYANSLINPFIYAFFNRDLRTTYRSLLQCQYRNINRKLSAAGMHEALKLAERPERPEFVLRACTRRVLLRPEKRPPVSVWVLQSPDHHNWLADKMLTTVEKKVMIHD
Summary of the method: as §1

[4] = target: T2, serotoninergic receptor 5-HT2C (Homo sapiens, UniProt P28335); assay: Binding assay 5-HT2C (h), [3H]mesulergine, HEK-293 cells; settings: read-out: 5-HT2C [%]
T2 construct: expressed in transfected cells; host or cells: HEK-293 cells
T2 sequence (P28335 33-458): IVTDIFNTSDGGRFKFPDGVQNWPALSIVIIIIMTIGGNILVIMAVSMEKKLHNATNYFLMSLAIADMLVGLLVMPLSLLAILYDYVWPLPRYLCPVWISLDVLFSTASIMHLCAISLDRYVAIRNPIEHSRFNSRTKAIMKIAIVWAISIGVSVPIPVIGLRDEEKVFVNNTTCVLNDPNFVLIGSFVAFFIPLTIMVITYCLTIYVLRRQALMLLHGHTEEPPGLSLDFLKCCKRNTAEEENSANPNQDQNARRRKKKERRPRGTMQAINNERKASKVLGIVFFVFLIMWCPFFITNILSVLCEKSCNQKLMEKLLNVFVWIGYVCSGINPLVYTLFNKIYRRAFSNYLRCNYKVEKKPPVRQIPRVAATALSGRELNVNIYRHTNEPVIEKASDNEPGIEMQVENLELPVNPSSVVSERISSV
Description: (§2) The specific ligand binding to the receptors is defined as the difference between the total binding and the nonspecific binding determined in the presence of an excess of so unlabelled ligand.
(§3) The specific Ligand binding to the receptor is defined as the difference between total and non-specific binding determined in the presence of an excess of unlabelled ligand. The compounds were tested at a concentration of 1×10^−6 M, and scintillation counting was the method of detection of ligand binding.

[5] = target: T3, serotoninergic 5-HT1A receptor (Homo sapiens, UniProt P08908); assay: Binding assay 5-HT1A (h), [3H]8-OH-DPAT, HEK-293 cells; design: expressed in transfected cells; host or cells: HEK-293 cells; settings: read-out: 5-HT1A
T3 sequence (P08908 1-422): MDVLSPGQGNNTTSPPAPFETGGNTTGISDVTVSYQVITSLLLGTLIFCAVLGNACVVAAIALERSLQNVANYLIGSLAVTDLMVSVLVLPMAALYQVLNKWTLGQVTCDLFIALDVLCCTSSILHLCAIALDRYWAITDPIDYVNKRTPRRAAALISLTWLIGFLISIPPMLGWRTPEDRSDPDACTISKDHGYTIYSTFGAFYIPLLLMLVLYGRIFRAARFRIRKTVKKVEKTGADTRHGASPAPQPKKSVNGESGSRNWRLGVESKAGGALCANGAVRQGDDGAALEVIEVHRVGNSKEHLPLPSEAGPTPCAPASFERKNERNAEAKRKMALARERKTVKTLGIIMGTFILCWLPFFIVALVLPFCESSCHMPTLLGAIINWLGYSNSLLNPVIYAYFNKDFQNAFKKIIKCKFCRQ
Summary of the method: as §1

muscarinic M3 receptor = target: T4, muscarinic M3 receptor (Homo sapiens, UniProt P20309); assay: Binding assay M3 (h), [3H]4-DAMP, CHO cells; settings: read-out: M3 [%]
T4 construct: expressed in transfected cells; host or cells: CHO cells
T4 sequence (P20309 whole entry): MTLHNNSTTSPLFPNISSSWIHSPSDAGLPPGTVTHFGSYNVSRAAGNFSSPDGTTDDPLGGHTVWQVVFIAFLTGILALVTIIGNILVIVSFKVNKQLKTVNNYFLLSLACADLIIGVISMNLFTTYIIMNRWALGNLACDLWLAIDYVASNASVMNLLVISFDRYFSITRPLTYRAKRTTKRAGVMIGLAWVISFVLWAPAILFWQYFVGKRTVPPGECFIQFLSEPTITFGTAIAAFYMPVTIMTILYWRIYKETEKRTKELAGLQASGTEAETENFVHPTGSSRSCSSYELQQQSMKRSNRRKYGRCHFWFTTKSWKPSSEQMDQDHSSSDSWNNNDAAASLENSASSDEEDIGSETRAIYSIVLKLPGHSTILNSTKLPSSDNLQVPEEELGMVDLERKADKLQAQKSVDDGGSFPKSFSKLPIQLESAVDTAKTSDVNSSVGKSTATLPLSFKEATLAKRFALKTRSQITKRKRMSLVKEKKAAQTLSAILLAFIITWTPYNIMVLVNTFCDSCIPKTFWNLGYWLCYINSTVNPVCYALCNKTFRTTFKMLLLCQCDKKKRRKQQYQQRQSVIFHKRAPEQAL
Description: as §2, §3

[6] = target: histaminergic H1 receptor (Homo sapiens, UniProt P35367); assay: Binding assay H1 (h), [3H]pyrilamine, HEK-293 cells; design: expressed in transfected cells; host or cells: HEK-293 cells; settings: read-out: H1 [%]
Chain of histaminergic H1 receptor (P35367 whole entry): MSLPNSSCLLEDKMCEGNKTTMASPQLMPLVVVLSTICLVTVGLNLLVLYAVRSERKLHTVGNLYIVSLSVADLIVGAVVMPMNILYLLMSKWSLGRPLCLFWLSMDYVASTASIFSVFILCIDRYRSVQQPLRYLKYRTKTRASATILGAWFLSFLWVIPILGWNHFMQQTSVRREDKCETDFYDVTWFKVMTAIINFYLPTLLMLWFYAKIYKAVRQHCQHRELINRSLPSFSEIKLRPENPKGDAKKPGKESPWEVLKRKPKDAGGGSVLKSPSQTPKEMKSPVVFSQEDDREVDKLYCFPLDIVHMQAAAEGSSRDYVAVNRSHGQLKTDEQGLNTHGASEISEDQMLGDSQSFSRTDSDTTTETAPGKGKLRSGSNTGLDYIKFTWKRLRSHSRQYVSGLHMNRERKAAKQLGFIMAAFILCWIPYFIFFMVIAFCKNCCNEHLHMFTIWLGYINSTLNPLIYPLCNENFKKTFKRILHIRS
Description: as §2, §3

sigma σ receptor = assay: Binding assay σ (non-selective), [3H]DTG, rat cerebral cortex; settings: percent inhibition of control specific binding; compounds tested at 1×10^−6 M
Description: as §2, §3

adrenergic α2C receptor = target: T5, adrenergic α2C receptor (Homo sapiens, UniProt P18825); assay: Binding assay α2C (h), [3H]RX 821002, CHO cells; design: expressed in transfected cells; host or cells: CHO cells; settings: read-out: α2C [%]
T5 sequence (P18825 1-462): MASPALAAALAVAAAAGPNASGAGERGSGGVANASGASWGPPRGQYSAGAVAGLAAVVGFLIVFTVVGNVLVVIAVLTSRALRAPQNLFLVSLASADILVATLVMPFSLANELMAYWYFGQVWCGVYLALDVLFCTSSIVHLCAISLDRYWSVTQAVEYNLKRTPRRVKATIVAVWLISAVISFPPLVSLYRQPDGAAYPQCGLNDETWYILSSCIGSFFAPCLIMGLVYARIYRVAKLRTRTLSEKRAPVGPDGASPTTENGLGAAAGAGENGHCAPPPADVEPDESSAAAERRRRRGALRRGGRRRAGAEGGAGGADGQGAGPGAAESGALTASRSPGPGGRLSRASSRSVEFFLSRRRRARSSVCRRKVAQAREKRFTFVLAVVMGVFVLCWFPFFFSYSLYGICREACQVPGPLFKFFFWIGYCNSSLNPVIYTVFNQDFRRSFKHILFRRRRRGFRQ
Description: as §2, §3

[7] = target: serotoninergic 5-HT2A receptor (Homo sapiens, UniProt P28223); assay: Binding assay 5-HT2A (h), [3H]ketanserin, HEK-293 cells; design: expressed in transfected cells; host or cells: HEK-293 cells; settings: read-out: 5-HT2A
Chain of serotoninergic 5-HT2A receptor (P28223 whole entry): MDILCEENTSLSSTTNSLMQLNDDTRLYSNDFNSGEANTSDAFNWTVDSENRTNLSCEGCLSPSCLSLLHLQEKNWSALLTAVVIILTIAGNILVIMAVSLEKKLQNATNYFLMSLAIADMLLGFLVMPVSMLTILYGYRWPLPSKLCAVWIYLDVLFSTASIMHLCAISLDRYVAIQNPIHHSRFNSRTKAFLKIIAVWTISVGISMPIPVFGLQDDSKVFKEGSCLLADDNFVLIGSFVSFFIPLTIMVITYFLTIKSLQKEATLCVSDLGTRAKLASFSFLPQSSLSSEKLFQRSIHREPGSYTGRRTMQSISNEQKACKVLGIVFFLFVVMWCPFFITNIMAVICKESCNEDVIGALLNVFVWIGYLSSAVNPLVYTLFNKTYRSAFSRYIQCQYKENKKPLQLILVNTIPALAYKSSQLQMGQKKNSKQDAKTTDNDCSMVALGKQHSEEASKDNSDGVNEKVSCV
Summary of the method: as §1

Chain of serotoninergic 5-HT6 receptor (P50406 whole entry): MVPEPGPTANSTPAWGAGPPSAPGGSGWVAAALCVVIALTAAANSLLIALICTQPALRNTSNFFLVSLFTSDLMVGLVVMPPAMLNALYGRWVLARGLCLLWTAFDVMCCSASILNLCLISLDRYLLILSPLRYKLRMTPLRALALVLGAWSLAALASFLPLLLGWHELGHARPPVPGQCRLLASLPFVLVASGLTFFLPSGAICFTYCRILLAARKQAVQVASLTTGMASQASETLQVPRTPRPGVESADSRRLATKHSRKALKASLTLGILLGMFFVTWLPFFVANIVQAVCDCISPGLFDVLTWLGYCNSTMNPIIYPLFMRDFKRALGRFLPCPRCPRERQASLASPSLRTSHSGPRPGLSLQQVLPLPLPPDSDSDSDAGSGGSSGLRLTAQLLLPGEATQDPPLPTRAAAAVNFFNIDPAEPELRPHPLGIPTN

SMILES | inhibition at 1 µM [1] | α1 [%] (adrenergic α1 receptor) | inhibition at 1 µM (dopaminergic D3 receptor) | inhibition at 1 µM [2] | inhibition at 1 µM (dopaminergic D2 receptor) | inhibition at 1 µM [3] | inhibition at 1 µM [4] | inhibition at 1 µM [5] | inhibition at 1 µM (muscarinic M3 receptor) | inhibition at 1 µM [6] | σ [%] (sigma σ receptor) | inhibition at 1 µM (adrenergic α2C receptor) | inhibition at 1 µM [7]
CC(C)(C)c1ccc(S(=O)(=O)NCCCN2CCN(c3nsc4ccccc34)CC2)cc1 [Compound 256, N-[3-[4-(1,2-Benzothiazol-3-yl)piperazin-1-yl]propyl]-4-tert-butylbenzenesulphonamide] | 95% | 87% | 96% | 93% | 97% | 100% | 94% | 96% | 15% | 94% | 41% | 92% | 102%
O=S(=O)(NCCCN1CCN(c2nsc3ccccc23)CC1)c1ccc(F)cc1 [Compound 248, N-[3-[4-(1,2-Benzothiazol-3-yl)piperazin-1-yl]propyl]-4-fluorobenzenesulphonamide] | 98% | 91% | 100% | 80% | 99% | 98% | 84% | 97% | 13% | 97% | 64% | 93% | 101%
O=S(=O)(NCCCN1CCC(c2noc3cc(F)ccc23)CC1)c1cc2ccc(Cl)cc2s1 [Compound 347, 6-Chloro-N-[3-[4-(6-fluoro-1,2-benzoxazol-3-yl)piperidin-1-yl]propyl]benzothiophene-2-sulphonamide] | 99% | – | 103% | 33% | 103% | 100% | 99% | 92% | 12% | 98% | – | 110% | 101%
O=S(=O)(NCCCN1CCN(c2nsc3ccccc23)CC1)c1ccc2c(c1)OCO2 [Compound 269, N-[3-[4-(1,2-Benzothiazol-3-yl)piperazin-1-yl]propyl]-1,3-benzodioxole-5-sulphonamide] | 98% | 97% | 100% | 96% | 99% | 101% | 92% | 99% | 20% | 92% | 49% | 101% | 101%
O=S(=O)(NCCCN1CCN(c2nsc3ccccc23)CC1)c1ccc(-c2ccccc2)cc1 [Compound 260, N-[3-[4-(1,2-Benzothiazol-3-yl)piperazin-1-yl]propyl]-4-phenylbenzenesulphonamide] | 92% | 91% | 98% | 90% | 99% | 100% | 90% | 96% | 11% | 95% | 41% | 99% | 102%
O=S(=O)(NCCCN1CCN(c2nsc3ccccc23)CC1)c1csc2ccccc12 [Compound 263, N-[3-[4-(1,2-Benzothiazol-3-yl)piperazin-1-yl]propyl]benzothiophene-3-sulphonamide] | 96% | 90% | 98% | 87% | 98% | 98% | 87% | 98% | 7% | 93% | 49% | 93% | 102%
O=S(=O)(NCCCN1CCN(c2nsc3ccccc23)CC1)c1ccc(Cl)c(Cl)c1 [Compound 251, N-[3-[4-(1,2-Benzothiazol-3-yl)piperazin-1-yl]propyl]-3,4-dichlorobenzenesulphonamide] | 99% | 95% | 97% | 87% | 97% | 99% | 83% | 99% | 8% | – | 61% | 96% | 101%
O=c1[nH]c2cccc(N3CCN(CCCNS(=O)(=O)c4ccc(Cl)cc4)CC3)c2[nH]1 [Compound 425, 4-chloro-N-[3-[4-(2-oxo-1,3-dihydrobenzimidazol-4-yl)piperazin-1-yl]propyl]-benzenesulphonamide] | 5% | – | 104% | 10% | 91% | 95% | 24% | 98% | 2% | 6% | – | 59% | 25%
O=S(=O)(NCCCN1CCN(c2nsc3ccccc23)CC1)c1ccc(F)c(Cl)c1 [Compound 64, N-[3-[4-(1,2-Benzothiazol-3-yl)piperazin-1-yl]propyl]-3-chloro-4-fluorobenzenesulphonamide] | 99% | 93% | 98% | 80% | 98% | 99% | – | 99% | 7% | 98% | 54% | 100% | 101%
